One block for each molecule: values may come before it.
Tests used:
human skin explants [1] = assay: Depigmentation of human skin explants by NNT activators; type: cell-based; conditions: after 36 hours, DMSO-based carrier, FIGS. 13A-B
Experimental: Skin samples considered surgical waste were obtained de-identified from healthy donors (IRB #2013P000093) undergoing reconstructive surgery, according to institutional regulations. Full thickness human abdominal skin explants were cultured in petri dishes with a solid phase and liquid phase phenol red free DMEM medium containing 20% penicillin/streptomycin/glutamine, 5% fungizone (Gibco), and 10% fetal bovine serum. Compounds were applied strictly on top of the explants, making sure no drip occurred into the underlying media. For UV irradiation experiments, a UV lamp (UV Products) was used at 1000 mJ/cm^2 UVB.
The ability of ASS, Usnic acid, 4-hexylresorcinol, candesartan, Nigericin, elaidylphosphocholine, hexitidine, naproxol, and Ginkgolic acid to depigment skin was tested in human skin explants. A DMSO-based carrier solution was used. DMSO was used as a negative control. […]

human skin = assay: Topical treatment of a human subject (skin type 2); type: in vivo; conditions: 100 uM in DMSO, 15 days, twice per day
Experimental: A human subject with skin type 2 was treated with Hexetidine 100 uM in DMSO for 15 days, twice per day, individual.

[2] = test system: primary human melanocytes; assay: Melanosome maturation by transmission electron microscopy; type: cell-based; conditions: NAC 5 mM or MitoTEMPO 20 μM; for siNNT-induced melanosome maturation: daily for 96 h; for total number of melanosomes per um^2: daily for 96 hours
Experimental: Transmission electron microscopy: Cultured primary human melanocytes were grown in Medium 254 in 6-well transwell plates. Ninety-six h post siRNA or overexpression treatment, the cells were fixed with a modified Kamovsky's fixative (2% paraformaldehyde/2.5% glutaraldehyde in 0.1 M sodium cacodylate buffer, pH 7.4) for at least 2 h on a gentle rotator, followed by rinsing several times with 0.1 M cacodylate buffer. Then, the cells were treated with 1% osmium tetroxide/0.1 M cacodylate buffer for 1 h, rinsed thoroughly in 0.1 M cacodylate buffer, scraped, and the cell suspensions were transferred into 15 ml centrifuge tubes and centrifuged (3,000 rpm) for 15 min at 4° C.). Pelleted material was embedded in 2% agarose, dehydrated through an ethanol gradient (series of solutions from 30% to 100% ethanol), dehydrated briefly in 100% propylene oxide, then allowed to infiltrate overnight on a gentle rotator in a 1:1 mix of propylene oxide and Eponate resin (Ted Pella, Inc., kit with DMP30, #18010′). The following day, specimens were transferred into fresh 100% Eponate resin for 2-3 hours, then embedded in flat molds in 100% fresh Eponate resin, and embeddings were allowed to polymerize for 24-48 h at 60° C. Thin (70 nm) sections were cut using a Leica EM UC7 ultramicrotome, collected onto formvar-coated grids, stained with 2% uranyl acetate and Reynold's lead citrate, and examined in a JEOL JEM 1011 transmission electron microscope at 80 kV. Images were collected using an AMT digital imaging system with proprietary image capture software (Advanced Microscopy Techniques, Danvers, MA). Measurements of distances between melanosomes and mitochondria were quantified in FIJI (ImageJ) (Schindelin et al., 2012) by applying a customized macro to TEM micrographs. Melanosomes (N=˜50) were randomly selected for each condition within the whole image data set. Thirty Euclidean distances from the melanosome surface to the closest mitochondria surface were measured in nm. From these 30 single measurements the mean was calculated to give a final single mean value per melanosome-mitochondria event. A total of ˜50 events (N) were quantified per condition. Data were plotted and statistically analyzed using Prism 8 (Version 8.4.3). […] Cell area (μm^2), number of melanosome-mitochondria contacts, and number of mitochondria were quantified in FIJI (ImageJ) using polygon and multi-point selection tools. Melanosome identification and quantification were performed with images at 40,000× magnification or higher. […] All identifiable melanosomes in 4 cells per condition were quantified and classified, and the proportions of each stage were normalized to cell cytosolic area (determined by ImageJ).

tyrosinase = assay: Cycloheximide chase assay of tyrosinase protein stability; type: cell-based, human; conditions: UACC257, 5 mM NAC, 0.1 mM NADPH, 20 μM MitoTEMPO for 48 h, then CHX
Experimental: Cycloheximide chase assay: 72 h after siRNA transfection (sicontrol or siNNT), UACC257 melanoma cells were treated with a protein synthesis inhibitor, cyclohexamide (CHX, Sigma Aldrich #C7698, 50 μg/ml), for the indicated times and then immediately subjected to immunoblotting for tyrosinase protein expression. The expression of tyrosinase was quantified using ImageJ software based on band intensities and normalized to the intensities of the corresponding β-actin bands. The normalized tyrosinase expression was then defined as relative tyrosinase expression by setting the mean values at t=0 in each experimental group to 1.0. […] The siRNA-transfected cells were cultured for an additional 48 h in the presence of these agents and then examined by the CHX chase assay as described above. pLJM-1-EGFP or pLJM1-NNT/FLAG was introduced into UACC257 cells using Lipofectamine 3000, 48 after transfection, the transfection medium was replaced with fresh medium containing DMSO or 10 μM MG132 (Sigma Aldrich #M8699) and pre-incubated for 6 h. Then. CHX was added to assess tyrosinase protein stability as described above.

UACC257 cells = assay: siNNT-induced pigmentation with antioxidants, melanin content; type: cell-based, human; conditions: NAC 5 mM, MitoTEMPO 20 μM daily for 72 h; NADPH 0.1 M
Experimental: (§1) sIRNA transfection: A single treatment of 10 nmol/L of siRNA was delivered to a 60% confluent culture by transfection with Lipofectamine RNAiMAX (Life Technologies, #13778150) according to the manufacturer's recommendations. After 48-72 h of transfection, total RNA or protein was harvested. Melanin quantification: Equal numbers of cells were plated in 6-well plates. The cells were then harvested 72-96 hours post siRNA or NNT inhibitors compounds, as indicated in the legends, pelleted, washed in PBS and counted. 10^6 cells were used for measurement of protein concentration with the Pierce BCA protein assay (Thermo Fisher Scientific, #23225) and 10^6 cells were resuspended in 60 μl of 1 N NaOH solution and incubated at 60° C. for 2 h or until the melanin was completely dissolved. After cooling down to room temperature, samples were centrifuged at 500×g for 10 min and the supernatants were loaded onto a 96-well plate. The melanin content was determined by measuring the absorbance at 405 nm on an Envision plate reader, compared with a melanin standard (0 to 50 μg/ml; Sigma Aldrich, #M8631). Melanin content was expressed as micrograms per milligram of protein.

NNT = assay: Immunoblot of NNT after redox modulators; type: cell-based, human; conditions: UACC257, NAC 5 mM, MitoTEMPO 20 μM, H2O2 100 μM, daily for 72 hours
Experimental: Immunoblotting: Whole-cell protein lysates were prepared using RIPA lysis buffer (Sigma-Aldrich, #R0278) supplemented with Protease and Phosphatase Inhibitor (ThermoFisher Scientific, #P178445). Protein concentrations were quantified using the Pierce BCA protein assay (ThermoFisher Scientific, #23225). Immunoblotting was performed by standard techniques using 4-15% Criterion TGX Precast Midi Protein gels (Bio-Rad Laboratories, #5671084) and transferring to 0.2 μm nitrocellulose membranes (Bio-Rad Laboratories, #1620112). Membranes were blocked with 5% non-fat milk (Boston BioProducts, #P-1400) in PBS containing 0.1% […] and incubated with one of the following primary antibodies at the indicated dilution (antibody sources are in the Key Resources Table): 1:20 dilution of anti-MITF monoclonal antibody CS, 1:1,000 dilution of anti-Tyrosinase clone T311, 1:1,000 dilution of anti-Mitofusin-2 antibody [6A8], 1:500 dilution of TRP2/DCT antibody, 1:1,000 dilution of anti-NNT antibody [8B4BB10], 1:1,000 dilution of anti-IDH1 ([…]) antibody, 1:1,000 dilution of p53 antibody [PAb 240], 1:1,000 dilution of TYRP1 antibody [EPR21960], 1:1,000 dilution of mouse monoclonal antibody Pmel17 (E-7), or 1:1,000 dilution of LC3B (D11) rabbit monoclonal antibody. Incubation with the appropriate secondary antibody followed, either a 1:5,000 dilution of donkey anti-Rabbit IgG-HRP or a 1:3,000 dilution of Amersham ECL mouse IgG, HRP. To verify equal loading of samples, membranes were re-probed with a 1:20,000 dilution of monoclonal anti-β-actin-peroxidase (Sigma Aldrich, #A3854). Protein bands were visualized using Western Lightning Plus ECL (PerkinElmer, #NEL105001EA) and quantified using ImageJ software (NIH).

human skin explants [3] = assay: Pigmentation of human skin explants with topical NNT inhibitors; conditions: human skin explants, data not shown
murine Melan-A cells = assay: Melanin content of Melan-A cells with NNT inhibitors; type: cell-based, mouse; conditions: 2 mM, FIG. 3A
Experimental: Murine Melan-A (Bennett et al., 1987) cells were obtained from the Wellcome Trust Functional Genomics Cell Bank. Melan-A cells were grown in RPMI 1640 supplemented with 10% FBS or FetalPlex (Gemini Bio-Products, #100-602), 100,000 U/L penicillin, 100 mg/L streptomycin sulphate, 100× Glutamax, and 200 nM TPA.
In vitro culture with NNT inhibitors: 2,3-Butanedione 97% (2,3 BD) (Sigma Aldrich, #B85307) (1 μM, 10 μM, 100 μM, 2 mM), N,N-Dicyclohexylcarbodiimide (DCC) (Sigma Aldrich, #D80002) (1 mM, 2 mM, 10 mM), and Palmitoyl coenzyme A lithium salt (Sigma Aldrich, #P9716) (10 μM, 2 mM) were reconstituted with DMSO (American Type Culture Collection, 4-X).
as §1, with “Melanin” for “sIRNA transfection: A single treatment of 10 nmol/L of siRNA was delivered to a 60% confluent culture by transfection with Lipofectamine RNAiMAX (Life Technologies, #13778150) according to the manufacturer's recommendations. After 48-72 h of transfection, total RNA or protein was harvested. Melanin”

[4] = test system: human melanocytes, dermal fibroblasts, and keratinocytes; assay: Cell viability of human skin cells with NNT inhibitors; type: cell-based; conditions: up to 10 μM, FIG. 10B
Experimental: Primary human keratinocytes were cultured in EpiLife® medium supplemented with human keratinocyte growth supplement (HKGS, ThermoFisher Scientific). Primary human fibroblasts were cultured in medium 106 supplemented with low serum growth supplement (LSGS, ThermoFisher Scientific). 10^6 and […] cells were plated per well of 6-well and 96-well plates, respectively. Drugs indicated in the figure legends were dissolved in DMSO and added 1:1000 to the culture media for 24 h at the concentrations indicated.
Cell viability assay: Human melanoma cell lines and isolated primary cultured human melanocytes were propagated and tested in early passage (Passages 7 to 9). The effects of NNT inhibitors (2,3BD, DCC, and Palmitoyl coenzyme A lithium salt) on cell viability were evaluated by the CellTiter-Glo Luminescent Cell Viability Assay (Promega, #G7570) and measurement of luminescence was performed on an EnVision 2104 Multilabel Reader (PerkinElmer). Human melanoma cell lines and primary melanocytes were plated on 96-well white plates (10,000 cells/well) and were treated with the NNT inhibitors at the indicated concentrations for 24 h.

SMILES: CCCCC(CC)CN1CN(CC(CC)CCCC)CC(C)(N)C1 (centres unmarked) [Hexetidine, 1,3-bis(2-ethylhexyl)-5-methyl-1,3-diazinan-5-amine]
ability to depigment skin (human skin explants [1]): depigmenting effects
depigmentation of human skin (human skin): successful depigmentation
irritation (human skin): without significant irritation

SMILES: CC1(C)CC(NC(=O)C[P+](c2ccccc2)(c2ccccc2)c2ccccc2)CC(C)(C)N1[O] [MitoTEMPO]
siNNT-induced melanosome maturation [2]: prevented the siNNT-induced phenotype
total number of melanosomes per um^2 [2]: not altered
siNNT-increased tyrosinase protein stability (tyrosinase): prevented
siNNT-mediated increase in pigmentation (UACC257 cells): inhibited the siNNT-mediated increase in pigmentation
NNT protein levels (NNT): did not impact NNT protein levels

siNNT-increased tyrosinase protein stability (tyrosinase): prevented
SMILES: CC(=O)N[C@@H](CS)C(=O)O [NAC, N-acetylcysteine]
siNNT-induced melanosome maturation [2]: prevented the siNNT-induced phenotype
total number of melanosomes per um^2 [2]: not altered
siNNT-mediated increase in pigmentation (UACC257 cells): inhibited the siNNT-mediated increase in pigmentation
NNT protein levels (NNT): did not impact NNT protein levels

SMILES: CCCCCCCCCCCCCCCC(=O)SCCNC(=O)CCNC(=O)[C@H](O)C(C)(C)COP(=O)(O)OP(=O)(O)OC[C@H]1O[C@@H](n2cnc3c(N)ncnc32)[C@H](O)[C@@H]1OP(=O)(O)O.[Li] [Palmitoyl-CoA, Palmitoyl coenzyme A lithium salt]
effect on pigmentation (human skin explants [3]): no effect on pigmentation
penetration of the epidermis (human skin explants [3]): did not penetrate the epidermis
melanin content (murine Melan-A cells): not
toxicity (viability) [4]: no significant toxicity

From patent publication US20240307283A1, “COMPOSITIONS AND METHODS FOR DECREASING PIGMENTATION” (The General Hospital Corporation, priority 2021, published 2024)
